According to ChEMBL document CHEMBL5150027, “The inhibition of monoamine oxidase by 2H-1,4-benzothiazin-3(4H)-ones” (Bioorg Med Chem Lett, 2022):

What was measured:
[1] = molecular target: T1, Amine oxidase [flavin-containing] B (Homo sapiens, UniProt P27338)
T1 sequence (P27338 whole entry): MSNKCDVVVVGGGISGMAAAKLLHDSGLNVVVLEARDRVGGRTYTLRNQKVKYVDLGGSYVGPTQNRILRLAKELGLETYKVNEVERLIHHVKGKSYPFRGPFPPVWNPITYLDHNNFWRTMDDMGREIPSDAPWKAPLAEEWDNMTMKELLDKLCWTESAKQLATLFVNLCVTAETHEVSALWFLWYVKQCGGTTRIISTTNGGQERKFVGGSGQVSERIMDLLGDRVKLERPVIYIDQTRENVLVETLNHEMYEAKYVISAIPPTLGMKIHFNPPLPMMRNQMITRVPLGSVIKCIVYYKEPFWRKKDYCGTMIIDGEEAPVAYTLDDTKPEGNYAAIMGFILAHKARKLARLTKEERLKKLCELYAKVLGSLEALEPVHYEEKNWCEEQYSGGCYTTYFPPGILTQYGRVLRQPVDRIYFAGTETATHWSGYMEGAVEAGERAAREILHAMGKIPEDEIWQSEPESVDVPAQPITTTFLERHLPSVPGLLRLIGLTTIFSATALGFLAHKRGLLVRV

[2] = molecular target: T2, Amine oxidase [flavin-containing] A (Homo sapiens, UniProt P21397); assay: Inhibition of recombinant human MAO-A using kynuramine as substrate assessed as inhibition of 4-hydroxyquinoline formation incubated for 20 mins by fluorescence spectrophotometric analysis
T2 sequence (P21397 whole entry): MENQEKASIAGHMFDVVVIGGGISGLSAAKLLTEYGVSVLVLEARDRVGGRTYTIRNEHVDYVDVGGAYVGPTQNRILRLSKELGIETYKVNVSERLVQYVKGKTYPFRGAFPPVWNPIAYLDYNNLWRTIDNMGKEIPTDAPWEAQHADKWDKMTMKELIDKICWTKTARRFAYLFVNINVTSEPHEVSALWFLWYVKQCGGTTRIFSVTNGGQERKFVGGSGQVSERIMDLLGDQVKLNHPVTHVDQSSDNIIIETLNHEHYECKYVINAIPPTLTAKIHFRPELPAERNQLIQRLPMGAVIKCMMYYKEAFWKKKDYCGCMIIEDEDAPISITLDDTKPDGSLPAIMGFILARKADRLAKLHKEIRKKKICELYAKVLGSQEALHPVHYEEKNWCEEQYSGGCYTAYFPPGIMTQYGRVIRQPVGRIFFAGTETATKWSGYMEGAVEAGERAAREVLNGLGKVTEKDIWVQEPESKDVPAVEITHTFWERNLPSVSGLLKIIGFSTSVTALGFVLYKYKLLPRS

D-amino-acid oxidase = D-amino-acid oxidase (Sus scrofa, UniProt P00371); assay: Inhibition of porcine kidney DAAO using D-serine as substrate assessed as H2O2 formation by amplex red and peroxidase-coupled continuous fluorescence spectrophotometric analysis
D-amino-acid oxidase, sequence (P00371 whole entry): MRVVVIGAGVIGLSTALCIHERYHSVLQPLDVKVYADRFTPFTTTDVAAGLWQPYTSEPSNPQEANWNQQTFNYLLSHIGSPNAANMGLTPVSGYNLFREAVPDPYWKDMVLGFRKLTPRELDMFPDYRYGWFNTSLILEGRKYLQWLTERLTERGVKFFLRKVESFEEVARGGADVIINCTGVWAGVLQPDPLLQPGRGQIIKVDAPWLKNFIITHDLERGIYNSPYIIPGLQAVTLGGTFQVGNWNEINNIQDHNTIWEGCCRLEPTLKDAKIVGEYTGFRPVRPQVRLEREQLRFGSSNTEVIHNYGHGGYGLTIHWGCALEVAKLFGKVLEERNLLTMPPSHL

[3] = molecular target: T1, Amine oxidase [flavin-containing] B; assay: Competitive inhibition of recombinant human MAO-B using kynuramine as substrate assessed as enzyme-inhibitor dissociation constant at varying substrate concentration by Lineweaver-burk plot analysis

Row | SMILES | IC50 [1] | IC50 [2] | IC50 (D-amino-acid oxidase) | Ki [3]
1 | COc1ccc2c(c1)SCC(=O)N2 | 42600 nM | 21.1 µM |  | 
2 | N#Cc1ccc(COc2ccc3c(c2)SCC(=O)N3)cc1 | 9.6 nM | 0.714 µM | 47.5 µM | 6.7 nM
3 | O=C1CSc2cc(OCC3CCCCC3)ccc2N1 | 24 nM | 1.17 µM |  | 
4 | O=C1CSc2cc(OCc3ccccc3)ccc2N1 | 71 nM | 8.06 µM |  | 
5 | O=C1CSc2cc(OCc3ccc(Cl)cc3)ccc2N1 | 2.7 nM | 24.4 µM | 73.2 µM | 
6 | Cc1ccc(COc2ccc3c(c2)SCC(=O)N3)cc1 | 8.2 nM |  |  | 

Second part, the molecule after the results:

Row | IC50 [1] | IC50 [2] | IC50 (D-amino-acid oxidase) | Ki [3] | SMILES
7 | 167 nM | 13.1 µM |  |  | O=C1CSc2cc(OCCc3ccccc3)ccc2N1
8 | 4.1 nM | 15.6 µM |  |  | O=C1CSc2cc(OCc3ccc(Br)cc3)ccc2N1
9 | 20000 nM | 19.2 µM | 4.2 µM |  | O=C1CSc2cc(O)ccc2N1
10 | 20 nM | 96.8 µM |  |  | O=C1CSc2cc(OCCCc3ccccc3)ccc2N1
11 | 2870 nM | 6.51 µM |  |  | CCCOc1ccc2c(c1)SCC(=O)N2
